Calls of active or inactive are those of the source. How the calls were made is not given here.
Test system: CCRIS mutagenicity, Ames/micronucleus/aberration tests
Test: CCRIS mutagenicity studies

Measured: mutagenic call

CC(C)[N+](=O)[O-]
active: Test System: AMES SALMONELLA TYPHIMURIUM, Strain/Indicator: TA98(NR), Metabolic Activation: NONE, Method: PREINCUBATION active; positive | Test System: AMES SALMONELLA TYPHIMURIUM, Strain/Indicator: TA98(NR), Metabolic Activation: RAT, LIVER, S-9, CLOPHEN A-50, Method: PREINCUBATION active; positive | Test System: AMES SALMONELLA TYPHIMURIUM, Strain/Indicator: TA98, Metabolic Activation: RAT, LIVER, S-9, AROCLOR 1254, Method: PREINCUBATION active; positive | Test System: AMES SALMONELLA TYPHIMURIUM, Strain/Indicator: TA98, Metabolic Activation: RAT, LIVER, S-9, CLOPHEN A-50, Method: PREINCUBATION active; positive | Test System: AMES SALMONELLA TYPHIMURIUM, Strain/Indicator: TA98, Metabolic Activation: RAT, LIVER, S-9, KANECHLOR 500, Method: PREINCUBATION active; positive | Test System: AMES SALMONELLA TYPHIMURIUM, Strain/Indicator: TA100(NR), Metabolic Activation: NONE, Method: PREINCUBATION active; positive | Test System: AMES SALMONELLA TYPHIMURIUM, Strain/Indicator: TA100(NR), Metabolic Activation: RAT, LIVER, S-9, CLOPHEN A-50, Method: PREINCUBATION active; positive | Test System: AMES SALMONELLA TYPHIMURIUM, Strain/Indicator: TA100, Metabolic Activation: RAT, LIVER, S-9, AROCLOR 1254, Method: PREINCUBATION active; positive | Test System: AMES SALMONELLA TYPHIMURIUM, Strain/Indicator: TA100, Metabolic Activation: RAT, LIVER, S-9, AROCLOR, Method: PREINCUBATION active; positive | Test System: AMES SALMONELLA TYPHIMURIUM, Strain/Indicator: TA100, Metabolic Activation: RAT, LIVER, S-9, CLOPHEN A-50, Method: PREINCUBATION active; positive | Test System: AMES SALMONELLA TYPHIMURIUM, Strain/Indicator: TA100, Metabolic Activation: RAT, LIVER, S-9, KANECHLOR 500, Method: PREINCUBATION active; positive | Test System: AMES SALMONELLA TYPHIMURIUM, Strain/Indicator: TA102, Metabolic Activation: NONE, Method: PREINCUBATION active; positive | Test System: AMES SALMONELLA TYPHIMURIUM, Strain/Indicator: TA102, Metabolic Activation: RAT, LIVER, S-9, AROCLOR 1254, Method: PREINCUBATION active; positive | Test System: AMES SALMONELLA TYPHIMURIUM, Strain/Indicator: TA102, Metabolic Activation: RAT, LIVER, S-9, AROCLOR, Method: PREINCUBATION active; positive | Test System: CHINESE HAMSTER V-79, Strain/Indicator: V-79/6-THIOGUANINE, Metabolic Activation: NONE, Method: STANDARD PLATE active; positive | Test System: E. COLI, Strain/Indicator: WP2 UVRA (PKM101), Metabolic Activation: NONE, Method: PREINCUBATION active; positive | Test System: E. COLI, Strain/Indicator: WP2 UVRA (PKM101), Metabolic Activation: RAT, LIVER, S-9, KANECHLOR 1254, Method: PREINCUBATION active; positive | Test System: UDS HUMAN HEPATOCYTES, Strain/Indicator: THY INCORP, Metabolic Activation: NONE, Method: AUTORADIOGRAPHY active; positive | Test System: UDS HUMAN HEPATOCYTES, Strain/Indicator: THY-INCORP, Metabolic Activation: NONE, Method: AUTORADIOGRAPHY active; positive | Test System: UDS MOUSE HEPATOCYTES, Strain/Indicator: THY INCORP, Metabolic Activation: NONE, Method: AUTORADIOGRAPHY active; positive | Test System: UDS RAT HEPATOCYTES, Strain/Indicator: THY INCORP, Metabolic Activation: NONE active; positive | Test System: UDS RAT HEPATOCYTES, Strain/Indicator: THY INCORP, Metabolic Activation: NONE, Method: AUTORADIOGRAPHY active; positive | Test System: UDS RAT HEPATOCYTES, Strain/Indicator: THY-INCORP, Metabolic Activation: NONE, Method: AUTORADIOGRAPHY active; positive | Test System: UDS RODENT HEPATOCYTES, Strain/Indicator: THY INCORP (NON-S-PHASE), Metabolic Activation: IN VIVO, Method: AUTORADIOGRAPHY active; positive | Test System: UDS RODENT HEPATOCYTES, Strain/Indicator: THY INCORP (NON-S-PHASE), Metabolic Activation: NONE, Method: LIQUID SCINTILLATION COUNTING active; positive
inactive: End Point: IN VITRO CHROMOSOMAL ABERRATIONS, Test System: CHINESE HAMSTER OVARY CELLS, Metabolic Activation: NONE inactive; negative | End Point: IN VITRO CHROMOSOMAL ABERRATIONS, Test System: CHINESE HAMSTER OVARY CELLS, Metabolic Activation: RAT, LIVER, S-9, AROCLOR 1254 inactive; negative | End Point: In vitro chromosomal aberrations, Test System: Chinese hamster lung (CHL/IU) cells, Metabolic Activation: None inactive; negative | End Point: In vitro chromosomal aberrations, Test System: Chinese hamster lung (CHL/IU) cells, Metabolic Activation: Rat, Liver, S9, Phenobarbital and 5,6-benzoflavone inactive; negative | Test System: CHINESE HAMSTER V-79, Strain/Indicator: V-79/6-THIOGUANINE, Metabolic Activation: RAT, HEPATOCYTES inactive; negative | Test System: CHINESE HAMSTER V-79, Strain/Indicator: V-79/OUABAIN, Metabolic Activation: NONE inactive; negative | Test System: CHINESE HAMSTER V-79, Strain/Indicator: V-79/OUABAIN, Metabolic Activation: RAT, HEPATOCYTES inactive; negative | Test System: UDS RODENT HEPATOCYTES, Strain/Indicator: THY INCORP (NON-S-PHASE), Metabolic Activation: NONE, Method: PREINCUBATION inactive; negative
